According to paper PMC7324608 (Scientific Reports, 2020):
Where no end group is shown, it is not given here. [ ]: non-standard residue; d: D form. Tyr(3-NO2) = N[C@@H](Cc1ccc(O)c([N+](=O)[O-])c1)C(=O)O; 2Abz = Nc1ccccc1C(=O)O

What was measured:
[1] = format: physicochemical; settings: 50 mM HEPES pH 7.4, 3 h, 37 °C, absence of protease and presence of HpHtrA SA mutant
Method: (§1) Fig. S4. MS analysis of the HpHtrA-mediated cleavage products of 2-Abz-AQRVAF-Y(3-NO2)-NH2. The […]
(§2) ratio in 50 mM HEPES buffer (pH 7.4) for 3 h at 37°C. The samples were desalted by using ZipTip® pipette tips (Merck Millipore) and measured by MALDI -TOF-MS (positive mode). The peptide was found to be stable in the buffer in the absence of the protease as well as in the presence of the HpHtrA […]
(§3) (1 picture or pasted object on this page, not shown here)

HpHtrA wt = target: T1, HpHtrA wt (Helicobacter pylori, UniProt G2J5T2); test: MS analysis of HpHtrA-mediated cleavage of the FRET peptide; format: biochemical; design: (HpHtrA, G18-K475, UniProt G2J5T2); GST (N, cleaved yes); made in house; host or cells: E. coli BL21; settings: peptide:HpHtrA 20:1, 50 mM HEPES pH 7.4, 3 h, 37 °C, MALDI-TOF-MS
T1 sequence (G2J5T2 18-475): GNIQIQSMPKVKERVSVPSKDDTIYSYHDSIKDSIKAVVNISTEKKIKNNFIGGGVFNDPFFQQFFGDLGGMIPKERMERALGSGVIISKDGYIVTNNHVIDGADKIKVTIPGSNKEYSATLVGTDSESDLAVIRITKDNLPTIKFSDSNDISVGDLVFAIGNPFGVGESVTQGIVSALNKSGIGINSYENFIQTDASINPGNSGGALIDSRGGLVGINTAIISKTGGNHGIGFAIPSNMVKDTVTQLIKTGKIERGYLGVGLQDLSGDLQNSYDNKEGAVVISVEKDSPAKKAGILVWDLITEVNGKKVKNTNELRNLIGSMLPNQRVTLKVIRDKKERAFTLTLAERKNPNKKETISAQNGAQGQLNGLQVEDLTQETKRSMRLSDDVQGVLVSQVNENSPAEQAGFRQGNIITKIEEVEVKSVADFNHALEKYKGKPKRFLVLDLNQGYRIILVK
Method: as §1, §2, §3

HpHtrA [2] = target: T2, HpHtrA (Helicobacter pylori, UniProt G2J5T2); test: in vitro E-cadherin (hCdh1) cleavage by HpHtrA (Western blot); format: biochemical; settings: 1 mM; 50 ng hCdh1, 250 ng HpHtrA, 16 h, 37 °C
T2 construct: (HpHtrA, G18-K475, UniProt G2J5T2); GST (N, cleaved yes); made in house; host or cells: E. coli BL21
T2 sequence (G2J5T2 18-475): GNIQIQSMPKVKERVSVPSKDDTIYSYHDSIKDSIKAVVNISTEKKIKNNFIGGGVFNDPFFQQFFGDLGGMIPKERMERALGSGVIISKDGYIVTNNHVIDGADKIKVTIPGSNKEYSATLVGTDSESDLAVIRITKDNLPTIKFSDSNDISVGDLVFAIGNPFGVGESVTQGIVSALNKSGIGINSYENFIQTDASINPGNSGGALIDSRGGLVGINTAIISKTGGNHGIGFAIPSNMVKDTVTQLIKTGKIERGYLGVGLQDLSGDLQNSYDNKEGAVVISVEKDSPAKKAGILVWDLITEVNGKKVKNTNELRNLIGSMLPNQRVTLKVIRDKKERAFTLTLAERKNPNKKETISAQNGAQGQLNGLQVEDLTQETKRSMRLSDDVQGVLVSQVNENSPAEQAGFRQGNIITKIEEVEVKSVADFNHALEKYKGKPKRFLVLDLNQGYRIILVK
Description: (§4) The proteins were separated by SDS-PAGE and visualized by staining with Coomassie Brilliant Blue G250 (Lactan, Vienna, Austria). […] Proteins were separated using SDS-PAGE and blotted onto a nitrocellulose membrane. Human Cdh1 was detected by an antibody recognizing the EC5 domain of hCdh1 (Abcam, Cambridge, UK) and a polyclonal serum was used to detect HpHtrA[22]. Independent experiments were repeated at least three times.

HpHtrA [3] = target: T2, HpHtrA; test: in vitro casein cleavage by HpHtrA (Coomassie SDS-PAGE); format: biochemical; settings: 1 mM; 10 µg casein, 250 ng HpHtrA, 16 h, 37 °C
Description: as §4

[4] = target: the molecule itself; test: casein zymography + other: non-reducing SDS-PAGE; recombinant HpHtrA proteins in non-reducing sample buffer without beta-mercaptoethanol; SDS-PAGE with 0.1% casein, renatured and developed 24 h at 37 °C, or Coomassie-stained non-reducing SDS-PAGE for detection of multimers
[5] = target: the molecule itself; test: non-reducing SDS-PAGE; HpHtrA wt untreated or with increasing concentrations of ZnCl2 or CuCl2; Coomassie-stained SDS-PAGE under non-reducing conditions

With “2-Abz-AQRVAF-Y(3-NO2)-NH2 ([2Abz]AQRVAF[Tyr(3-NO2)]-NH2; N-terminus assumed; SMILES CC(C)[C@H](NC(=O)[C@H](CCCNC(=N)N)NC(=O)[C@H](CCC(N)=O)NC(=O)[C@H](C)NC(=O)c1ccccc1N)C(=O)N[C@@H](C)C(=O)N[C@@H](Cc1ccccc1)C(=O)N[C@@H](Cc1ccc(O)c([N+](=O)[O-])c1)C(N)=O) [FRET substrate peptide AQRVAF with N-terminal 2-aminobenzoyl fluorophore and C-terminal 3-nitro-tyrosine quencher]” the “stability of the peptide” value [1] was “stable” and the “cleavage of the peptide by HpHtrA” value (HpHtrA wt) was “fully cleaved, preferentially after Val”.

For `[Ca+2].[Cl-].[Cl-]` [Ca^++, CaCl2], the “effect on HpHtrA-mediated hCdh1 cleavage/fragmentation” value (HpHtrA [2]) was “significantly blocked”.

For `O=C(O)CN(CCN(CC(=O)O)CC(=O)O)CC(=O)O` [EDTA, ethylenediaminetetraacetic acid, reference compound], the “effect on HtrA-mediated casein degradation” value (HpHtrA [3]) was “did not alter” and the “effect on HpHtrA-mediated hCdh1 cleavage/fragmentation” value (HpHtrA [2]) was “considerably enhanced”.

For `O=C(O)CN(CCOCCOCCN(CC(=O)O)CC(=O)O)CC(=O)O` [EGTA, ethylene glycol-bis(β-aminoethyl ether)-N,N,N′,N′-tetraacetic acid, reference compound], the “effect on HtrA-mediated casein degradation” value (HpHtrA [3]) was “did not alter” and the “effect on HpHtrA-mediated hCdh1 cleavage/fragmentation” value (HpHtrA [2]) was “considerably enhanced”.

B1: HpHtrA S164A (enzyme)
chain: GNIQIQSMPKVKERVSVPSKDDTIYSYHDSIKDSIKAVVNISTEKKIKNNFIGGGVFNDPFFQQFFGDLGGMIPKERMERALGSGVIISKDGYIVTNNHVIDGADKIKVTIPGSNKEYSATLVGTDSESDLAVIRITKDNLPTIKFADSNDISVGDLVFAIGNPFGVGESVTQGIVSALNKSGIGINSYENFIQTDASINPGNSGGALIDSRGGLVGINTAIISKTGGNHGIGFAIPSNMVKDTVTQLIKTGKIERGYLGVGLQDLSGDLQNSYDNKEGAVVISVEKDSPAKKAGILVWDLITEVNGKKVKNTNELRNLIGSMLPNQRVTLKVIRDKKERAFTLTLAERKNPNKKETISAQNGAQGQLNGLQVEDLTQETKRSMRLSDDVQGVLVSQVNENSPAEQAGFRQGNIITKIEEVEVKSVADFNHALEKYKGKPKRFLVLDLNQGYRIILVK
B1: binds [4].

B2: HtrA wild type (wt) from the H. pylori strain Hp26695 (enzyme)
chain: GNIQIQSMPKVKERVSVPSKDDTIYSYHDSIKDSIKAVVNISTEKKIKNNFIGGGVFNDPFFQQFFGDLGGMIPKERMERALGSGVIISKDGYIVTNNHVIDGADKIKVTIPGSNKEYSATLVGTDSESDLAVIRITKDNLPTIKFSDSNDISVGDLVFAIGNPFGVGESVTQGIVSALNKSGIGINSYENFIQTDASINPGNSGGALIDSRGGLVGINTAIISKTGGNHGIGFAIPSNMVKDTVTQLIKTGKIERGYLGVGLQDLSGDLQNSYDNKEGAVVISVEKDSPAKKAGILVWDLITEVNGKKVKNTNELRNLIGSMLPNQRVTLKVIRDKKERAFTLTLAERKNPNKKETISAQNGAQGQLNGLQVEDLTQETKRSMRLSDDVQGVLVSQVNENSPAEQAGFRQGNIITKIEEVEVKSVADFNHALEKYKGKPKRFLVLDLNQGYRIILVK
notes: also called HpHtrA; HpHtrA wt
B2: binds [5].
